Measurements as given in patent US12595251B2, “Amidines and amidine analogs for the treatment of bacterial infections and potentiation antibiotics” (GEORGIA STATE UNIVERSITY RESEARCH FOUNDATION, INC., priority 2018, dated 2026).
Counter-ions that a name gives are not always drawn.

Legend:
wild-type E. coli = assay: Sensitization of wild-type E. coli toward antibiotics (MIC of antibiotic with/without sensitizer); format: cell-based, Escherichia coli; conditions: for Sensitization fold: compound at 5 μg/ml, strain and antibiotic not stated in Table 8
Procedure: Bacteria were cultured with the antibiotic at various concentrations in the presence or absence of bacterial sensitizer for 24 hours at 37° C. Bacterial growth density was determined by measuring OD600 (absorbance measured at a wavelength of 600 nm). […]
The formula for calculating FIC is shown below: […]

E. coli [1] = assay: Sensitization of E. coli to erythromycin (sensitization fold from IC90, OD600, 20 h); format: cell-based, Escherichia coli; conditions: for SF (E. coli): sensitization fold = IC90 of erythromycin without/with compound, compound concentration not given, T=toxic; for SF (E. coli) at 20 μM: compound at 20 μM; for SF (E. coli) at 10 μM: compound at 10 μM
Procedure: E. coli bacteria were cultured in Miller's broth at 37° C. overnight prior to treatment. B. subtilis bacteria were cultured in nutrient broth at 37° C. overnight prior to treatment. […] Bacterial density was measured based on OD600.

H9c2 cells = assay: Cytotoxicity in H9c2 cells (CCK-8, 24 h); format: cell-based
Procedure: H9c2 (ATCC®R-1446™) cells Were used in the studies. The H9c2 cells were maintained in DMEM (Dulbeccoa's Modified Eagle's Medium) supplemented with 10% fetal bovine serum (Mid Sci; S01520HI) and 1% penicillin-streptomycin (Sigma-Aldrich; P4333) at 37° C. with 5% CO2. The H9c2 cells were seeded in 96-well plate one day before the experiment. Different concentrations of di-amidine compounds were added into the H9c2 cells. The cells were then incubated with the compounds for 24 h at 37° C. with 5% CO2. The cell viability was tested by the CCK-8. Specifically, after 24 h incubation, 10 μL CCK-8 was added to each well. After 3 h incubation at 37° C., the absorbance at 450 nm was recorded by a plate reader. The cytoxicity in HEK293 and 3T3 cells was measured using the same procedure. Data is shown in Table 5 (NT=not toxic; --=not tested).

E. coli [2] = assay: MIC of compounds against E. coli (OD600, 48 h); format: cell-based; conditions: Escherichia coli; for inhibition at 12 µM: compound alone at 12 μM, NA=no activity, read-out: Growth inhibition of E. coli at 12 μM; for inhibition at 25 µM: read-out: Growth inhibition of E. coli at 25 μM, compound alone at 25 μM, NA=no activity; for inhibition at 50 µM: read-out: Growth inhibition of E. coli at 50 μM, compound alone at 50 μM, NA=no activity
B. subtilis = assay: MIC of compounds against B. subtilis (OD600, 48 h); format: cell-based; conditions: Bacillus subtilis; for inhibition at 12 µM: compound alone at 12 μM, read-out: Growth inhibition of B. subtilis at 12 μM; for inhibition at 6 µM: read-out: Growth inhibition of B. subtilis at 6 μM, compound alone at 6 μM, NA=no activity; for MIC: MIC = 90% growth inhibition, compound alone; for inhibition at 2 µM: read-out: Growth inhibition of B. subtilis at 2 μM, compound alone at 2 μM
Procedure: Bacteria were then cultured with varying concentration of the compounds shown below for 48 hours, and then bacterial density was measured based on OD600. The procedure to determine the MIC for each compound against B. subtilis was the same except that the bacteria was cultured in nutrient broth. The MIC of each compound against B. subtilis is shown in Table 2 (NA=no activity, --=not tested).

## N=C(N)c1ccc(OCCCCCOc2ccc(C(=N)N)cc2)cc1 [Pentamidine, pentamidine]
wild-type E. coli
  Minimal concentration achieving 10-fold sensitization of E. coli toward erythromycin: 40 μg/ml

## Cc1cc(COc2ccc(C(=N)N)cc2F)cc(COc2ccc(C(=N)N)cc2F)c1 [drawing 747]
E. coli [1]; erythromycin, compound at 25 μM, NA=no activity
  SF (E. coli) at 25 μM: 64-fold at 25 μM

## N=C(N)c1ccc(OCc2ccc(-c3ccc(C(=N)N)cc3)cc2)cc1 [drawing 711]
E. coli [1]; NA=no activity
  SF (E. coli): <2

## N=C(N)c1ccc(OCc2cccc(COc3ccc(C(N)=O)cc3)n2)cc1
H9c2 cells
  H9c2 CC^50: 50 µM

## N=C(N)c1ccc(OCc2ccc(-c3ccc(C(=N)N)cc3)cc2)cc1 [drawing 852]
H9c2 cells
  H9c2 CC^50: 50 µM

## COc1cc(C2=NCCN2)ccc1OCc1cccc(COc2ccc(C3=NCCN3)cc2OC)c1F [drawing 868]
H9c2 cells
  H9c2 CC^50: 50 µM

## N=C(N)c1ccc(OCCCCCCOc2ccc(C(=N)N)cc2)cc1 [drawing 862]
H9c2 cells
  H9c2 CC^50: <5 µM

## COc1cc(OCc2ccc(C(=N)N)cc2)cc(OCc2ccc(C(=N)N)cc2)c1
E. coli [1]; erythromycin
  SF (E. coli) at 20 μM: No effect at 20 μM

## COc1cc(C(=N)N)ccc1OCc1cccc(COc2ccc(C(=N)N)cc2OC)c1F [drawing 872]
H9c2 cells
  H9c2 CC^50: 12.5 µM

## Cc1cc(COc2ccc(C(=N)NC(C)C)cc2)cc(COc2ccc(C(=N)NC(C)C)cc2)c1 [Compound C-3, 1,3-Bis {(4-isopropylamidino)-phenoxymethyl}-5-methylbenzene dihydrochloride]
E. coli [1]; general statement on amidine substitution or ring restraint
  Ability to sensitize Gram-negative bacteria (while preserving ability to sensitize some Gram-positive bacteria): greatly decrease, or even abolish

## CC(C)(C)c1cc(COc2ccc(C(=N)N)cc2F)cc(COc2ccc(C(=N)N)cc2F)c1 [Compound E-15, 1,3-bis {[4-amidino-2-fluoro]-phenoxymethyl]}-5-(tert-butyl)benzene dihydrochloride]
wild-type E. coli
  Sensitization fold: 256

## Cc1cc(-c2nc3cc(C(=N)N)ccc3n2C)sc1-c1ccc(OCCCCOc2ccc(C(=N)N)cc2)cc1 [drawing 715]
E. coli [1]; NA=no activity
  SF (E. coli): <2

## CO/N=C(\N)c1ccc(OCc2cc(C)cc(COc3ccc(/C(N)=N\OC)cc3)c2)cc1 [drawing 748]
E. coli [1]; erythromycin
  SF (E. coli) at 20 μM: 4-fold at 20 μM

## Fc1c(COc2ccc(C3=NCCN3)cc2)cccc1COc1ccc(C2=NCCN2)cc1 [drawing 866]
H9c2 cells
  H9c2 CC^50: 25 µM

## N=C(N)c1ccc(OCc2cccc(COc3ccc(C(=N)N)cc3)c2F)cc1 [drawing 718]
E. coli [1]; NA=no activity
  SF (E. coli): <2

## N=C(N)c1ccc(OCOc2ccc(C(=N)N)cc2)cc1 [drawing 858]
H9c2 cells
  H9c2 CC^50: 50 µM

## N=C(N)c1ccc(Oc2ccc(C(=N)N)cc2)cc1 [drawing 851]
H9c2 cells
  H9c2 CC^50: 50 µM

## Fc1cc(C2=NCCN2)ccc1OCc1cccc(COc2ccc(C3=NCCN3)cc2F)c1F
H9c2 cells
  H9c2 CC^50: 50 µM

## CCCCc1cc(OCc2ccc(C(=N)N)cc2)cc(OCc2ccc(C(=N)N)cc2)c1 [drawing 749]
E. coli [1]; erythromycin
  SF (E. coli) at 10 μM: 10 μM > 32 fold

## Cc1cc(-c2nc3cc(C(=N)N)ccc3n2C)sc1-c1ccc(OCCCCOc2ccc(C(=N)N)cc2)cc1 [drawing 856]
H9c2 cells
  H9c2 CC^50: 50 µM

## CC(C)(C)c1cc(COc2ccc(C(=N)N)cc2)cc(COc2ccc(C(=N)N)cc2)c1 [drawing 732]
E. coli [1]; erythromycin, compound at 12.5 μM, NA=no activity
  SF (E. coli) at 12.5 μM: 4-fold at 12.5 μM

## N=C(N)c1ccc(OCc2cccc(COc3ccc(C(=N)N)cc3F)c2F)c(F)c1 [Compound A-1, 4,4′-(((2-Fluoro-1,3-phenylene)bis(methylene))bis(oxy))bis(3-fluorobenzimidamide) Dihydrochloride]
wild-type E. coli
  Sensitization fold: 8

## N=C(N)c1ccc(OCc2cccc(COc3ccc(C(=N)N)cc3)c2)cc1 [drawing 853]
H9c2 cells
  H9c2 CC^50: 50 µM

## Cn1c(CCCCc2nc3ccc(C(=N)N)cc3n2C)nc2ccc(C(=N)N)cc21 [drawing 850]
H9c2 cells
  H9c2 CC^50: 50 µM

## CCCCc1cc(OCc2ccc(C(=N)N)cc2)cc(OCc2ccc(C(=N)N)cc2)c1 [drawing 887]
H9c2 cells
  H9c2 CC^50: 25 µM

## Cn1c(-c2ccc(-c3ccc(C(=N)N)cc3)s2)nc2cc(-c3ccc(C(=N)N)cc3)ccc21 [drawing 848]
H9c2 cells
  H9c2 CC^50: 50 µM

## Cc1cc(COc2ccc(C3=NCCN3)cc2)cc(COc2ccc(C3=NCCN3)cc2)c1 [drawing 779]
E. coli [2]
  inhibition at 12 µM: 10%
  inhibition at 25 µM: 25%
B. subtilis
  inhibition at 12 µM: 25%
  inhibition at 6 µM: 20%

## COc1cc(C(=N)N)ccc1OCc1cccc(COc2ccc(C(=N)N)cc2OC)c1F [drawing 769]
E. coli [2]
  inhibition at 12 µM: 30%
  inhibition at 25 µM: 50%
B. subtilis
  inhibition at 12 µM: 50%
  inhibition at 6 µM: 25%

## Cc1cc(COc2ccc(NC(=N)N)cc2)cc(COc2ccc(NC(=N)N)cc2)c1
H9c2 cells
  H9c2 CC^50: 100 µM

## N=C(N)c1ccc2[nH]c(-c3ccc(-c4ccc(-c5ccc(-c6ccc(-c7nc8cc(C(=N)N)ccc8[nH]7)cc6)s5)s4)cc3)nc2c1 [drawing 849]
H9c2 cells
  H9c2 CC^50: 50 µM

## CC(C)(C)c1cc(COc2ccc(C(=N)N)cc2F)cc(COc2ccc(C(=N)N)cc2F)c1 [drawing 883]
H9c2 cells
  H9c2 CC^50: 25 µM

## N=C(N)c1ccc(OCc2cccc(COc3ccc(C(=N)N)cc3)c2F)cc1 [drawing 859]
H9c2 cells
  H9c2 CC^50: 50 µM

## c1cc(COc2ccc(C3=NCCN3)cc2)cc(COc2ccc(C3=NCCN3)cc2)c1 [drawing 865]
H9c2 cells
  H9c2 CC^50: <12 µM

## Cc1cc(COc2ccc(C(=N)N)cc2F)cc(COc2ccc(C(=N)N)cc2F)c1 [Compound E-18, 1,3-Bis {[4-amidino-2-fluoro)-phenoxymethyl]}-5-methyl-benzene dihydrochloride]
wild-type E. coli
  Sensitization fold: 32

## N=C(N)c1ccc2nc(-c3ccc(OCC(F)(F)C(F)(F)COc4ccc(-c5nc6ccc(C(=N)N)cc6[nH]5)cc4)cc3)[nH]c2c1 [drawing 706]
E. coli [1]; NA=no activity
  SF (E. coli): <2

## N=C(N)c1ccc(OCc2cc(COc3ccc(C(=N)N)cc3)cc(COc3ccc(C(=N)N)cc3)c2)cc1 [drawing 781]
E. coli [2]
  inhibition at 12 µM: 40%
  inhibition at 25 µM: 60%
B. subtilis
  MIC: 12 µM
  inhibition at 6 µM: 80%

## N=C(N)c1ccc(OCc2cccc(COc3ccc(C(=N)N)cc3F)c2F)c(F)c1 [drawing 713]
E. coli [1]; NA=no activity
  SF (E. coli): 6

## N=C(N)c1ccc(COc2cc(OCc3ccc(C(=N)N)cc3)cc(C(F)(F)F)c2)cc1 [drawing 750]
E. coli [1]; erythromycin
  SF (E. coli) at 10 μM: 10 μM > 32 fold

## Cn1c(-c2ccc(-c3ccc(C(=N)N)cc3)s2)nc2cc(-c3ccc(C(=N)N)cc3)ccc21 [drawing 771]
E. coli [2]
  inhibition at 25 µM: 15%
B. subtilis
  MIC: 12 µM
  inhibition at 2 µM: 20%
  inhibition at 6 µM: 50%

## Cc1cc(-c2nc3cc(C(=N)N)ccc3n2C)sc1-c1ccc(OCCCCOc2ccc(C(=N)N)cc2)cc1 [drawing 775]
E. coli [2]
  inhibition at 25 µM: 30%
B. subtilis
  inhibition at 12 µM: 70%

## N=C(N)c1ccc(OCc2cccc(COc3ccc(C(=N)N)cc3)n2)cc1 [drawing 776]
E. coli [2]
  inhibition at 50 µM: 50%
B. subtilis
  MIC: 12.5 µM
  inhibition at 2 µM: 40%

## N=C(N)c1ccc(OCc2ccc(COc3ccc(C(=N)N)cc3)cc2)cc1 [drawing 766]
E. coli [2]
  inhibition at 12 µM: 10%
  inhibition at 25 µM: 20%
B. subtilis
  inhibition at 12 µM: 70%
  inhibition at 6 µM: 60%

## N=C(N)c1ccc(OCc2cccc(COc3ccc(C(=N)N)cc3)c2)cc1 [drawing 712]
E. coli [1]; NA=no activity
  SF (E. coli): <2

## N=C(N)c1ccc(OCc2cccc(COc3ccc(C(=N)N)cc3)c2)cc1 [drawing 773]
E. coli [2]
  inhibition at 12 µM: 35%
  inhibition at 25 µM: 50%
  inhibition at 50 µM: 60%
B. subtilis
  inhibition at 12 µM: 70%
  inhibition at 2 µM: 30%
  inhibition at 6 µM: 60%
